In US10564164B2, “Fluorescent probe, singlet oxygen detection agent, and singlet oxygen detection method” (Osaka University, priority 2014, dated 2020):

Legend:
[1] = Fluorescence quantum yield in various solvents in the absence of singlet oxygen; assay type: physicochemical
Method: Further, in the in vitro measurement, unless otherwise specified, all bulk spectrum measurements were performed in a phosphate buffered saline (PBS) having a pH of 7.5 without Ca and Mg or spectral grade methanol. The absorption spectrum and fluorescence spectrum in the ground state were measured using the Shimadzu UV-3100 and Horiba FluoroMax-4, respectively. The bulk irradiation was performed using a xenon light source (LAX-C100, Asahi Spectra Co., Ltd.) and a wavelength filter (BA510-550, Olympus Corporation).
As is clear from the above, fluorescence was hardly observed in the absence of singlet oxygen, (Φfl=0.01; in methanol), and the excitation of silicon-rhodamine was cancelled due to photoinduced electron transfer caused by the anthracene structure. The fluorescence in the absence of singlet oxygen also depended on the type of solvent. The fluorescence intensity decreases when a polar solvent is used, thereby inhibiting erroneous signals.

[2] = Selectivity test against various reactive oxygen species; assay type: physicochemical; conditions: 5 μM in methanol:PBS pH 7.4 1:1, 10 minutes in dark
Method: A test was performed to confirm whether Si-DMA of Example 1 causes no self-oxidation of dye and is selectively responsive to singlet oxygen.
However, formation of aggregates decreases the effective concentration of the dye, thereby decreasing the reaction speed of Si-DMA. Therefore, a 5-μM Si-DMA solution was first prepared using a mixed solvent containing methanol and a pH 7.4 PBS buffer solution mixed at 1:1. In this solution, Si-DMA was present as a monomer. Subsequently, 10-mM solutions of various reactive oxygen species (ROS)(^1O2, O2.^−, H2O2, HOCl, ROO., and .OH) were prepared by adding the following additives to the 5-μM Si-DMA solution obtained above.
5. ROO.: 10 mM 2,2-azobis(2-amidinopropane)dihydrochloride
Under intense magnetic stirring, each Si-DMA solution containing reactive oxygen species (ROS) was stored for 10 minutes in a dark room. […]

HeLa cells = experiment: Viable cell imaging / localization in organelle; assay type: cell-based; conditions: Si-DMA 20 nM / 100 nM, co-staining with Mito Tracker Green FM
Method: A treatment requiring incubation of less than two hours was performed using a serum-free culture medium containing 20 mM of HEPES, and a treatment requiring incubation of four hours or more was performed using a blood serum-containing medium containing 20 mM of HEPES so as to maintain the cell viability. To label mitochondria, Mito Tracker® Green FM was diluted to 50 nM, and incubated for 30 minutes. Further, 10000 MW of dextran (A488- and A647-dextran) labeled with Alexa Fluor® 488 or Alexa Fluor® 647 was diluted to 50 μg/mL, and incubated for 24 hours, thereby staining lysosome.
Subsequently, a quick protocol provided by Molecular Probe® for introducing CellROX Green was followed. […] As a result, as previously reported, the conversion of 5-ALA into protoporphyrin IX (PpIX) in the mitochondria was confirmed by the fluorescence luminescence of PpIX.
In order to monitor an increase in fluorescence upon light irradiation on Si-DMA of Example 1, irradiation on reactive oxygen species was performed while monitoring the probe using an IX81 inverted fluorescence microscope (Olympus Corporation) and 640-nm CW laser (Coherent). […] The images of luminescence were collected and recorded by an EMCCD camera (Evolve 512; Roper Scientific) via a dichroic beam splitter (DI02-R635; Semrock) and a bandpass filter (HQ690/70; Chroma). […]

## Cc1c2ccccc2c(C)c2cc(C3=C4C=CC(=[N+](C)C)C=C4[Si](C)(C)c4cc(N(C)C)ccc43)ccc12 [Si-DMA]
[1]; in DMSO
  Φfl (fluorescence quantum yield): 0.008
[1]; in acetone
  Φfl (fluorescence quantum yield): 0.010
[1]; in benzene
  Φfl (fluorescence quantum yield): 0.034
[1]; in chloroform
  Φfl (fluorescence quantum yield): 0.010
[1]; in methanol
  Φfl (fluorescence quantum yield): 0.01
[1]; in toluene
  Φfl (fluorescence quantum yield): 0.030
[2]; other reactive oxygen species (O2.-, H2O2, HOCl, ROO., .OH)
  fluorescence intensity in the presence of reactive oxygen species: no increase in fluorescence was observed
[2]; singlet oxygen (10 mM NaOCl and 10 mM H2O2)
  fluorescence intensity in the presence of reactive oxygen species: significantly increased
HeLa cells
  intracellular localization: selectively localized in mitochondria
